Measurements from patent publication US10328092B2, “Methods and compositions for treatment of drug addiction” (The Royal Institution for the Advancement of Learning / …, priority 2015, dated 2019).

Tests used:
TNFα mRNA = assay type: in vivo, mouse
Protocol: For tissue, total RNA from the ventral striatum was extracted and isolated by RNAqueous-4PCR total RNA isolation kit (Ambion, AM1914), according to manufacturer's instructions. For microglia and astrocyte cultures, total RNA was isolated by RNeasy kit (Qiagen, 74136). For all sample types, 0.5 μg of total RNA was used for cDNA synthesis with Quantitect Reverse Transcription Kit (Qiagen, 205313), and quantitative RT-PCR was performed with Fast SYBR-Green Master Mix (Applied Biosystems) detected by StepOne Plus RealTime PCR system (Applied Biosystems). The sequences of qPCR primers used for mRNA quantification in this study were obtained from Integrated DNA Technologies, and are as follows: mouse TNFα forward, […] (SEQ ID NO: 1) [200 nM]; mouse TNFα reverse, […] (SEQ ID NO: 2) [200 nM]; mouse GAPDH forward, […] (SEQ ID NO: 3) [300 nM]; mouse GAPDH reverse, […] (SEQ ID NO: 4) [300 nM]; rat TNFα forward, […] (SEQ ID NO: 1) [600 nM]; rat TNFα reverse, […] […] After 40 cycles, the Ct values were determined. To normalize the samples, ΔCt between TNFα and GADPH or cyclophilin Ct values was calculated. The x-fold difference in expression between the different treatments was then determined by subtraction of the ΔCt values and termed ΔΔCt. Finally, the total change was calculated as 2-ΔΔct and the relative amount compared with control samples was deducted.

mice [1] = experiment: Basal locomotion; assay type: in vivo, mouse
Protocol: To determine whether the low TNFα response induced by MPLA can affect the behavioural response to cocaine, it was first assessed if MPLA can alter the basal locomotion of mice. Mice were injected with 10 ug of MPLA, and tested 24 hrs later. No difference in basal locomotion was observed (n=4), compared with saline injected control mice (FIG. 2).
Locomotion was monitored in 30×30 cm plexiglass boxes by the EthoVision video-tracking system (Noldus) and performed near the end of the light phase of the light-dark cycle under dim red light. After habituating animals to handling, mice received IP injections of saline or cocaine and their activity was recorded for 15 min. […] Following 10 days without injections (withdrawal), mice receive a challenge dose of cocaine (15 mg/kg) and locomotor activity again assessed (day 17). Total distance traveled and stereotypy were evaluated from video by EthoVision. For stereotypy, the frequency of which the mouse stops moving (#pauses/min) was measured using a threshold start velocity of 2.00/second and a threshold stop velocity of 0 cm/s. The number of turns per minute (# turns/min) was measured by calculating the frequency for which the path of the mouse turns over a minimum distance of 3.00 cm. Velocity was assessed as the mean distance traveled (cm) over time (s).

[2] = Sickness behavior in vivo
mice [3] = experiment: Stereotypic responses to cocaine (pausing, turning, velocity); assay type: in vivo, mouse; settings: MPLA 10 μg or 50 μg, response to cocaine
Protocol: Locomotion was monitored in 30×30 cm plexiglass boxes by the EthoVision video-tracking system (Noldus) and performed near the end of the light phase of the light-dark cycle under dim red light. After habituating animals to handling, mice received IP injections of saline or cocaine and their activity was recorded for 15 min. Mice were tested during habituation to injection and the activity boxes (saline; days 1-2) and 5 repeated cocaine injections (15 mg/kg; days 3-7). Following 10 days without injections (withdrawal), mice receive a challenge dose of cocaine (15 mg/kg) and locomotor activity again assessed (day 17). Total distance traveled and stereotypy were evaluated from video by EthoVision. For stereotypy, the frequency of which the mouse stops moving (#pauses/min) was measured using a threshold start velocity of 2.00/second and a threshold stop velocity of 0 cm/s. The number of turns per minute (# turns/min) was measured by calculating the frequency for which the path of the mouse turns over a minimum distance of 3.00 cm. Velocity was assessed as the mean distance traveled (cm) over time (s).

TNFα = TNFα mRNA / protein in ventral striatum (NAc) after in vivo treatment; set-up: species or system mouse; settings: for TNFα mRNA in the ventral striatum: single injection of MPLA 10 μg
Protocol: To determine the effect of in vivo cocaine exposure on TNFα levels in the ventral striatum, TNFα mRNA and protein levels were measured in mice given intraperitoneal injections of saline or cocaine. […] To understand the impact of TNFα on synaptic function in the NAc, AMPA/NMDA ratios were measured at glutamatergic synapses on MSNs in the NAc core. Alteration in NAc core AMPA receptors are involved in the expression of behavioral sensitization to psychostimulants (Kalives, 2009).
Mice (8-10 weeks) were perfused and their brains submerged overnight in 4% PFA, cryoprotected with 30% sucrose, and cut in 30 μm thick coronal slices using a cryostat. The sections were incubated for 4 hours with blocking solution (2% normal goat serum, 3% BSA, 0.2% Triton X-100 in PBS) before incubation overnight at 4 C with primary antibodies in blocking solution (rabbit anti-Iba1 antibody [019-19741, Wako; 1:800; RRID: AB_2566825], chicken anti-GFAP antibody [AB5541, Millipore; 1:500; RRID: AB_177521], rabbit anti-NeuN [ab104225, Abcam, 1:400; RRID: AB_10711153], and rabbit anti-TNFα antibody [ab6671, Abcam, 1:100; RRID: AB_305641] or mouse anti-TNFα antibody [ab1793, Abcam, 1:100; RRID: AB_302615]). Sections were washed (2×15 min with PBST [0.05% Tween20] and 1×15 min with PBS at RT) and incubated for 2 hrs at room temperature in secondary antibodies (anti-rabbit, anti-chicken, or anti-mouse IgG-conjugated Alexa Fluorochrome [Invitrogen; 1:400]). Sections were washed and briefly (<30 seconds) incubated with Hoechst 33342 [H1399, Molecular Probes; 1:10,000] in PBS. The stained sections were imaged using an Olympus FluoView FV1000 confocal microscope with Fluoview imaging software (FV10-ASW). Images of the ventral striatum (nucleus accumbens core and shell) were acquired with a 40× or 60× objective and stacks of 25-30 optical sections (1 μm per section) of depth were Z-projected into a single window and analysed using ImageJ software (NIH).
The number of Iba1+ microglia were manually counted from 212×212 μm (60× objectives) or 317×317 μm (40× objectives) images. TNFα intensity was measured using the mean grey value of the entire image while Iba1 intensity measurements were obtained using a thresholded area to highlight only the microglia. Cell body area (μm^2) was measured based on Iba1 staining and using the freehand selection tool. Additional analysis of microglia morphology in saline and cocaine treated mice was done using IMARIS software (Bitplane). […] The following parameters were analyzed for 40 microglia per group: total process length (sum of length of all processes), total process volume, process diameter and number of branch points and terminals. […]
After 40 cycles, the Ct values were determined.

| Molecule | increase of TNFα mRNA in microglia cells (TNFα mRNA; 5 daily injections of cocaine, striatum CD11b+ fraction) [fold] | decrease in TNFα mRNA in non-microglial cells (TNFα mRNA; five daily cocaine treatments, other striatal cell types) [fold] | basal locomotion, distance (mice [1]; 24 hours after IP injection of 10 μg MPLA) [cm] | basal locomotion vs saline injected mice (mice [1]; 24 hours after i.p. injection of 10 μg MPLA) | sickness behavior [2] | mean velocity (mice [3]) | pausing (mice [3]) | turning behaviour (mice [3]) | TNF-α levels in vivo, lower than LPS (TNFα; compared with LPS) [fold] | TNFα mRNA in the ventral striatum (TNFα; 4 hours) | TNFα mRNA in the ventral striatum (TNFα; 24 hours) |
| --- | --- | --- | --- | --- | --- | --- | --- | --- | --- | --- | --- |
| COC(=O)[C@H]1[C@@H](OC(=O)c2ccccc2)C[C@@H]2CC[C@H]1N2C [cocaine] | ~2.5 | 3.26±0.21 | – | – | – | – | – | – | – | – | – |
| monophosphoryl lipid A [MPLA] | – | – | 5415±378 | No significant differences | without inducing sickness behavior | significant decreases | slight increase | significant decreases | 10 | significantly increases | significantly increases |
